In patent US4820821A, “Novel pyridazinone-imines and their physiologically tolerated addition salts with acids, their preparation and therapeutic agents containing these compounds” (BASF Aktiengesellschaft, priority 1981, dated 1989):
Where a name gives a salt, the structure may show the parent alone. Read-outs that look alike come from different tables or passages of the source.

Legend:
[1] = test system: reserpine-induced hypothermia / blood pressure; assay: Quotient ED 50% antidepressive action / ED 20% hypertensive action; type: in vivo, mouse / rat; settings: for Q Increase: Table 2, route of hypertensive test not given;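 on Q Increase: larger quotient means more selective hypertensive action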
Excerpt: This is evident from the fact that the quotient defined above differs wtih respect to the comparative compounds. […] This arises, inter alia, from the fact that the hypertensive ED 20 constitutes the denominator of the quotient. It is possible that the unforeseeable selective direction of action is attributable to the special substitution,in accordance with the invention, at the 4-imino group.

[2] = test system: blood pressure; assay: Effect on the blood pressure: hypertensive action, pithed rat; type: in vivo, male Sprague-Dawley rats; settings: for ED20: Rattus norvegicus, read-out: ED 20% hypertensive action (dose which increases the blood pressure of the pithed rat by 20%); for ED20 / ED 20% hypertensive action (dose which increases the blood pressure of the pithed rat by 20%): dose based on the base; for R.A. (relative activity), hypertensive action: amezinium = 1.00
Procedure: The measurement of the blood pressure in the carotid artery was carried out by means of Statham transducers. The substance was administered in the jugular vein (as an aqueous solution, 1 ml/kg) or intraperitoneally (as a tragacanth suspension, 2 ml/kg). The ED 20% is determined as the dose which increases the blood pressure by 20%.

[3] = test system: reserpine-induced hypothermia; assay: Antidepressive action: reserpine antagonism, inhibition of reserpine-induced hypothermia of the mouse; type: in vivo, male Swiss mice; settings: for ED50: Mus musculus, read-out: ED 50% (dose which inhibits the reserpine-induced hypothermia of the mouse by 50%); for ED50 / ED 50% (dose which inhibits the reserpine-induced hypothermia of the mouse by 50%): dose based on the base; for R.A. (relative activity), reserpine antagonism: amezinium = 1.00, oral
Procedure: Antidepressants effect dose-dependent inhibition of this hypotherma. The test substances are administered orally 60 minutes before the administration of reserpine.
The dose which effects 50% inhibition of the reserpine-induced hypothermia is determined, as the ED 50%, from the linear regression between log dose (mg/kg) and relative reduction in hypothermia (Δ%).

[4] = ip, Table 1, i.p. administration
[5] = Table 1, oral administration 60 min before reserpine
[6] = iv, Table 1, i.v. administration

Compound	Q (quotient ED 50% antidepressive action/ED 20% hypertensive action) ([1]; hypertensive test i.p.)	ED20 [2, 4] [mg/kg]	R.A. (relative activity), hypertensive action ([2]; Table 1, i.p. administration)	ED50 [3, 5] [mg/kg]	R.A. (relative activity), reserpine antagonism ([3]; Table 1)	Q (quotient ED 50% antidepressive action/ED 20% hypertensive action) ([1]; hypertensive test i.v.)	ED20 [2, 6] [mg/kg]	R.A. (relative activity), hypertensive action ([2]; Table 1, i.v. administration)	Q Increase [1]	R.A. (relative activity), hypertensive action ([2]; Table 2)	R.A. (relative activity), reserpine antagonism ([3]; Table 2)	further results
O=C(N=c1ccn(-c2ccccc2)nc1)c1cccc(C(F)(F)F)c1 [Example 26]	0.70	4.64	0.08	3.26	0.22	–	–	–	–	–	–	–
CC(C)NC(=O)N=c1ccn(-c2ccccc2)nc1 [Example 37]	–	–	–	0.7	1.05	0.70	1	0.05	–	–	–	–
CCOc1cc(=NC(=O)c2ccccc2Cl)cnn1-c1ccccc1 [Example 65]	–	–	–	–	–	–	–	–	> 59.62	0.09	< 0.02	ED20 ([2]; Table 2, route not given): 0.53 mg/kg; ED50 ([3]; Table 2, oral administration): > 31.6 mg/kg
Nc1cc[n+](-c2ccccc2)nc1.[O-][Cl+3]([O-])([O-])[O-] [1-phenyl-4-amino-pyridazinium perchlorate, reference compound]	1.60	–	1.48	–	1.83	22.22	–	2.78	22.22	2.78	1.83	Q (quotient ED 50% antidepressive action/ED 20% hypertensive action) ([1]; hypertensive test i.p., listed as Example 1 of German Laid-Open Application DOS No. 2,245,248): 1.6; Q (quotient ED 50% antidepressive action/ED 20% hypertensive action) ([1]; hypertensive test i.v., listed as Example 1 of German Laid-Open Application DOS No. 2,245,248): 22.2; antidepressive and hypertensive action (in words) ([1]; in vivo): have an antidepressive and hypertensive action; ED 20% hypertensive action (dose which increases the blood pressure of the pithed rat by 20%) ([2]; Table 1, i.p. administration): 0.25 mg/kg; ED 20% hypertensive action (dose which increases the blood pressure of the pithed rat by 20%) ([2]; Table 1, i.v. administration): 0.018 mg/kg; ED 20% hypertensive action (dose which increases the blood pressure of the pithed rat by 20%) ([2]; Table 2, route not given): 0.018 mg/kg; ED 50% (dose which inhibits the reserpine-induced hypothermia of the mouse by 50%) [3, 5]: 0.40 mg/kg; ED 50% (dose which inhibits the reserpine-induced hypothermia of the mouse by 50%) ([3]; Table 2, oral administration): 0.40 mg/kg
CCOC(=O)N=c1cnn(-c2ccccc2)c(OC)c1 [Example 69]	–	–	–	4.86	0.15	2.26	2.15	0.02	–	–	–	–
CCNC(=S)N=c1ccn(-c2ccccc2)nc1 [Example 87, 1,4-dihydro-4-(ethylthiocarbamyl)-imino-1-phenylpyridazine]	–	–	–	2.91	0.25	< 2.91	> 1	< 0.05	–	–	–	–
COc1cc(=NC(=O)c2ccc(F)cc2)cnn1-c1ccccc1 [Example 79]	0.11	10	0.04	1.14	0.64	–	–	–	–	–	–	–
O=C(N=c1ccn(-c2ccccc2)nc1)c1ccc(Cl)cc1Cl [Example 20]	< 0.11	> 10	< 0.04	1.1	0.67	–	–	–	–	–	–	–
CC1(C(=O)N=c2ccn(-c3ccccc3)nc2)CCCCC1 [Example 28]	–	–	–	0.58	1.26	5.80	0.1	0.50	–	–	–	–
COc1cc(=NC(=O)c2cccc(C(F)(F)F)c2)cnn1-c1ccccc1 [Example 77]	1.08	3.16	0.12	3.4	0.22	–	–	–	–	–	–	–
COc1cc(=NC(=O)Oc2ccccc2)cnn1-c1ccccc1 [Example 58, 1,4-dihydro-6-methoxy-4-(phenoxycarbonyl)-imino-1-phenylpyridazine]	–	–	–	–	–	–	–	–	56.20	0.50	0.13	ED20 ([2]; Table 2, route not given): 0.1 mg/kg; ED50 ([3]; Table 2, oral administration): 5.62 mg/kg
O=C(N=c1ccn(-c2ccccc2)nc1)Oc1ccccc1 [Example 30, 1,4-dihydro-4-(phenoxycarbonyl)-imino-1-phenylpyridazine hydrochloride]	–	–	–	–	–	–	–	–	120.59	1.47	0.18	factor by which the hypertensive dose (ED 20%) is smaller than the antidepressive effective dose (ED 50%) ([1]; compounds of Table 2): 120; ED20 ([2]; Table 2, route not given): 0.034 mg/kg; ED50 ([3]; Table 2, oral administration): 4.1 mg/kg
